{
  "source": "paper PMC9238271",
  "about": "“The quorum sensing peptide EntF* promotes colorectal cancer metastasis in mice: a new factor in the host-microbiome interaction” (BMC Biology, 2022)",
  "key": {"[1]": {"experiment": "In vitro metabolization of EntF: formation of EntF* in feces homogenate", "format": "in vitro ADME, C57BL/6 female mice", "conditions": "for EntF* Conc / EntF* without metabolisation, Conc / EntF*/EntF %: Feces, initial concentration EntF 31.82 µM", "description": "Krebs-Henseleit (KH) buffer (Sigma-Aldrich, Belgium) was prepared by dissolving the powdered medium in 900 mL water while stirring. Once the powder was completely dissolved, 0.3790 g CaCl2•2H2O and 2.098 g NaHCO3 were added to the solution. NaOH or HCl was used to adjust the pH to 7.4. The solution was brought to final volume (1000 mL) with ultrapure water.\nFeces homogenates were prepared, after collecting fecal material from two untreated C57BL/6 female mice after cervical dislocation, by using the same procedures employed for colon tissue homogenate preparation. Before use, the homogenate was diluted to a final protein concentration of 0.6 mg/mL.\nTo avoid the absorption of EntF* onto plasticware and glassware, all tubes and containers were coated with a BSA-based anti-adsorption solution before use.\nFive hundred microliters of tissue homogenate were mixed with 400 μL of pre-warmed KH buffer. Then, 100 μL of KH buffer (blank) or 1 mg/mL EntF peptide solution (test) were added to the diluted homogenate and incubated at 37 °C. […] After centrifugation at 16,000g for 30 min at 5 °C, supernatants were analyzed by LC1-MS1 for EntF* quantification.\nEntF* was detected and quantified on a Waters Acquity® UPLC H-class system, connected to a Waters Xevo™ TQ-S triple quadrupole mass spectrometer with electrospray ionization (operated in positive ionization mode). Autosampler tray and column oven were kept at 10 ± 5 °C and 60 ± 5 °C, respectively. Chromatographic separation was achieved on a Waters Acquity® UPLC BEH Peptide C18 column (300 Å, 1.7 μm, 2.1 mm × 100 mm). The mobile phases consisted of 93/2/5 water/acetonitrile/DMSO (V/V/V) containing 0.1% formic acid (mobile phase A) and 2/93/5 water/acetonitrile/DMSO (V/V/V) containing 0.1% formic acid (mobile phase B), and the flow rate was set to 0.5 mL/min. A 10-μL aliquot from each sample was injected. The gradient program started with 80% of mobile phase A for 1 min, followed by a linear gradient to 40% of mobile phase A for 3.5 min. Gradient was then changed to 14.2% mobile phase A at 5 min, followed by a 1 min equilibration, before starting conditions were applied. EntF* retention time was between 4.25 and 4.45 min.\nAn optimized capillary voltage of 3.00 kV, a cone voltage of 20.00 V, and a source offset of 50.0 V were used. Acquisition was done in the MRM mode. The selected precursor ion for EntF* was m/z 865.7 with two selected product ions at m/z 202.08 (36 eV, b2 fragment) as quantifier and m/z 315.17 (31 eV, b3 fragment) as qualifier."}, "[2]": {"system": "luciferase-transfected HCT-8/E11 cells injected into the cecal wall", "experiment": "Orthotopic mouse model of colorectal cancer: weekly bioluminescent imaging", "format": "in vivo, female athymic nude mice (Swiss nu/nu)", "description": "All in vivo experiments were performed according to the Ethical Committee principles of laboratory animal welfare, approved by our institute (Ghent University, Faculty of Medicine and Health Sciences, approval number ECD 17-90). Mice were maintained in a sterile environment under controlled conditions (light–dark cycle with light from 7:00 h to 17:00 h, temperature 21–25 °C and humidity 45–65%). Before the experiment, mice were allowed to acclimate to the abovementioned conditions for a minimum of 7 days.\nSix-week-old female athymic nude mice (Swiss nu/nu) were anesthetized, and a minimally invasive midline laparotomy was performed to localize the cecum. The cecum was then gently pulled out, and luciferase-transfected HCT-8/E11 cells (1 × 10^6 cells) in 20 μL serum-free DMEM medium with Matrigel (1:1) were injected into the cecal wall. Before implantation, cells were treated with EntF* (10^2 nM), Phr0662 (10^2 nM), vehicle (PBS), or TGFα positive control (0.1 μg mL^−1) solutions for 5 days. The cecum was then carefully placed back into the abdominal cavity and the surgical incision was closed with two layers of sutures with PDS 6-0. […] Once a week, mice were examined for tumor growth and metastases using bioluminescent imaging with the IVIS Lumina II (Perkin Elmer, Belgium) after i.p. injection with 200 μL luciferin (150 mg kg^−1). After 6 weeks, mice were euthanized using cervical dislocation, and the liver, diaphragm, lungs, cecum, duodenum, and peritoneum were macroscopically examined for the presence of tumor nodules. Liver and lung tissues were then fixed in formalin for 24 h and stored in 70% ethanol for maximum 3 days before embedding in paraffin. Next, a hematoxylin and eosin (H&E) staining was performed on 8 μm sections, and 3 sections per mouse were visualized using microscopy. Slides from tumor-bearing mice were analyzed by two blinded, independent investigators using the scoring system described in Additional file 5: Table S3. In case of differences, slides were scored by a third blinded, independent investigator for consensus.\nThe Kolmogorov-Smirnov test was used to assess if data obtained were normally distributed. For sample size n < 10, non-parametric tests (Mann-Whitney U test) were performed directly. Slope comparison was based on linear regression analysis. Bootstrapped medians and Hedges G-values were used to calculate the effect size when sample sizes were different between the groups."}},
  "note": "Entries after “also recorded” stand apart in the source; their conditions may differ.",
  "data": [
    {"molecule": "CC(C)C[C@@H]1NC(=O)[C@H](CO)NC(=O)[C@H](Cc2ccccc2)NC(=O)[C@H](C(C)C)NC(=O)[C@@H](NC(=O)[C@H](CCC(=O)O)NC(=O)[C@@H](NC(=O)[C@H](CC(C)C)NC(=O)[C@H](CC(N)=O)NC(=O)[C@@H](N)CO)C(C)C)CSSC[C@@H](C(=O)N[C@@H](CC(N)=O)C(=O)O)NC(=O)[C@H](CCCCN)NC(=O)[C@H](CCCCN)NC(=O)[C@H](Cc2ccccc2)NC1=O", "note": "(single isomer, unassigned) [EntF*]", "values": [
      {"measurement": "EntF* Conc", "setting": "[1]; Time 0", "value": 0.00, "unit": "µM"},
      {"measurement": "EntF* without metabolisation, Conc", "setting": "[1]; Time 0", "value": 0.0, "unit": "µM"},
      {"measurement": "EntF*/EntF %", "setting": "[1]; Time 0", "value": 0.0, "unit": "%"},
      {"measurement": "EntF* Conc", "setting": "[1]; Time 1", "value": 0.50, "unit": "µM"},
      {"measurement": "EntF* without metabolisation, Conc", "setting": "[1]; Time 1", "value": 0.529, "unit": "µM"},
      {"measurement": "EntF*/EntF %", "setting": "[1]; Time 1", "value": 1.7, "unit": "%"},
      {"measurement": "EntF* Conc", "setting": "[1]; Time 5", "value": 3.00, "unit": "µM"},
      {"measurement": "EntF* without metabolisation, Conc", "setting": "[1]; Time 5", "value": 3.9, "unit": "µM"},
      {"measurement": "EntF*/EntF %", "setting": "[1]; Time 5", "value": 12.4, "unit": "%"},
      {"measurement": "EntF* Conc", "setting": "[1]; Time 10", "value": 2.69, "unit": "µM"},
      {"measurement": "EntF* without metabolisation, Conc", "setting": "[1]; Time 10", "value": 4.6, "unit": "µM"},
      {"measurement": "EntF*/EntF %", "setting": "[1]; Time 10", "value": 14.5, "unit": "%"},
      {"measurement": "EntF* Conc", "setting": "[1]; Time 30", "value": 2.33, "unit": "µM"},
      {"measurement": "EntF* without metabolisation, Conc", "setting": "[1]; Time 30", "value": 11.8, "unit": "µM"},
      {"measurement": "EntF*/EntF %", "setting": "[1]; Time 30", "value": 37.1, "unit": "%"},
      {"measurement": "Formation rate, Faeces, Average", "setting": "[1]; mouse feces homogenate, Krebs-Henseleit buffer pH 7.4, 37 °C, LC1-MS1, average of X1-X4", "value": 1.71, "unit": "%*min-1"},
      {"measurement": "Formation rate, Faeces", "setting": "[1]; mouse feces homogenate, Krebs-Henseleit buffer pH 7.4, 37 °C, LC1-MS1, replicate X1", "value": 1.6635, "unit": "%*min-1"},
      {"measurement": "Formation rate, Faeces", "setting": "[1]; mouse feces homogenate, Krebs-Henseleit buffer pH 7.4, 37 °C, LC1-MS1, replicate X2", "value": 2.4748, "unit": "%*min-1"},
      {"measurement": "Formation rate, Faeces", "setting": "[1]; mouse feces homogenate, Krebs-Henseleit buffer pH 7.4, 37 °C, LC1-MS1, replicate X3", "value": 1.4512, "unit": "%*min-1"},
      {"measurement": "Formation rate, Faeces", "setting": "[1]; mouse feces homogenate, Krebs-Henseleit buffer pH 7.4, 37 °C, LC1-MS1, replicate X4", "value": 1.2367, "unit": "%*min-1"},
      {"measurement": "effect size class by Hedges' G, bioluminescence", "setting": "[2]; after a 6-week treatment, compared to the placebo group", "value": "medium to large effect"},
      {"measurement": "effect size: increase in bioluminescence compared to the placebo", "setting": "[2]; after a 6-week treatment, bootstrapped median", "value": 79, "unit": "%"},
      {"measurement": "luciferase activity / tumor growth compared to the vehicle", "setting": "[2]; daily i.p. over 6 weeks, linear regression slope comparison", "value": "statistically significant increase; also recorded: significant increase in tumor growth"}
    ]}
  ]
}
